The results in this text go back to patent US20090048258A1, “Amide Compound” (priority 2005, published 2009).

Bounds are passed on as bounds.

As a reminder, the IC50 is the concentration at which inhibition is half-maximal.

For this test, the target named is T1, Human DGAT1 (Homo sapiens, UniProt O75907).
T1 construct: my translation of the primer: M-G-DYKDDDD-GDRGSSRRR) (N); made in house; host or cells: Sf9 insect cells (recombinant baculovirus BAC-DGAT1, pFASTBAC1); microsome fraction
T1 sequence (O75907 1-488): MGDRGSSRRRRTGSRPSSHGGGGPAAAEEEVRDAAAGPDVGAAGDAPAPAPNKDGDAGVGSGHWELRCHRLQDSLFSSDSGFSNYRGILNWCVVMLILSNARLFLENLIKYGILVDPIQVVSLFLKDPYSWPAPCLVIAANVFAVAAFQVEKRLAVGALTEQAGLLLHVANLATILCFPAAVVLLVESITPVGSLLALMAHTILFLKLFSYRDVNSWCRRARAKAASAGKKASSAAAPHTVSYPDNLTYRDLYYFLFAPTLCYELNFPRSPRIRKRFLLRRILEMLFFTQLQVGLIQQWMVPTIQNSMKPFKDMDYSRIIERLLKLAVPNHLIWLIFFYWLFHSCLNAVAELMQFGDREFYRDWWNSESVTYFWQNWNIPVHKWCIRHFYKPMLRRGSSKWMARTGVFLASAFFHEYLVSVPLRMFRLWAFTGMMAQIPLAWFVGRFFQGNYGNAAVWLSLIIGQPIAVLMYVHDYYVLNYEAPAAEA
Kind of test: DGAT inhibitory activity: [14C]-triglyceride synthesis by DGAT1 high expression Sf9 microsome. The class given is biochemical. To be noted: Table 1, 25 μM dioleoylglycerol, 25 μM [14C]-Oleoyl-CoA, 32° C., 15 min, read-out: DGAT inhibitory activity (according to IC50). As to the method: The primer base sequence is shown below.
The PCR reaction was conducted using a KOD-plus kit (TOYOBO). The obtained PCR product was electrophoresed on agarose gel (1%), the DNA fragment amplified by PCR was recovered from the gel, and then digested with restriction enzymes EcoRI and SpeI. […] Furthermore, using BAC-TO-BAC Baculovirus Expression System (Invitrogen), recombinant baculovirus BAC-DGAT1 was prepared.
SF9 cells were sown at 1×10^6 cells/ml on Sf-900II SEM medium (1 L, Invitrogen) containing 10% fetal calf serum (Trace), 50 mg/L gentamicin (Invitrogen) and 0.1% Pluronic F-68 (Invitrogen), and shaking culture was performed using a 2 L volume Erlenmeyer at 27° C., 100 rpm. After culturing for 24 hr, recombinant baculovirus BAC-DGAT1 (6.7 mL) was added, and the mixture was further cultured for 3 days. The culture medium was centrifuged at 2,000 rpm for 5 min to give virus-infected cells. The infected cells were washed with a phosphate buffered saline (Invitrogen), centrifuged under the same conditions, and the cells were preserved at −80° C. The cryopreserved cells were thawed in ice, suspended in buffer A (50 mM Tris buffer (30 mL, pH 7.4) containing 20% glycerol, 0.15 M NaCl) supplemented with Complete Protease Inhibitor (Boehringer), and ruptured 3 times with a Polytron homogenizer (Kinematica) at 20,000 rpm for 30 sec. The Sf9 microsome fractions were obtained by a conventional method and cryopreserved at −80° C. as a DGAT1 high expression Sf9 microsome.
As a DGAT1 reaction buffer, a solution having a composition of 100 mM Tris-HCl (pH 7.5), 250 mM sucrose, 150 mM MgCl2, 0.01% bovine serum albumin (BSA) was used. […] A mixture of 300 μL of chloroform:methanol (=1:2) was added to the reaction mixture to quench the reaction. The reaction mixture was sufficiently mixed and saline (200 μL) was added to partition the mixture between a chloroform layer (lower layer) and an aqueous layer (upper layer). The chloroform layer (50 μL) was spotted on a thin layer chromatography silica gel plate (TLC plate, Merck) and developed with a solvent (n-hexane:diethyl ether:ethyl acetate:acetic acid=74:15:15:1). The developed TLC plate was dried, contacted with a BAS imaging plate (manufactured by FUJIFILM) and measured with BAS2500 (manufactured by FUJIFILM) 16 hr later to numerically show the amount of [^14C]-triglyceride (TG amount) produced during the reaction. The inhibitory rate was calculated by the following formula:
Inhibitory rate (%)=(1−(TG amount in the case with addition of test compound−blank TG amount)/(control TG amount−blank TG amount))×100
The count of the triglyceride produced in the solution reacted without addition of the test compound was used as a “control TG amount”, and the count of the triglyceride produced in the solution reacted without addition of the test compound and DGAT1 high expression Sf9 microsome was used as a “blank TG amount”.
On to `CCOC(=O)/C=C/c1cc(C(=O)CCC(=O)Nc2nc(-c3ccccc3)c(Cc3ccccc3)s2)ccc1OCC` [Example 30, ethyl (2E)-3-(5-{4-[(5-benzyl-4-phenyl-1,3-thiazol-2-yl)amino]-4-oxobutanoyl}-2-ethoxyphenyl)acrylate], for which the IC50 lay within 0.01 to 0.05 µM. To `CCOc1ccc(C(=O)CCC(=O)Nc2nc(-c3ccccc3)c(Cc3ccccc3)s2)cc1/C=C/C(=O)O` [Example 31, (2E)-3-(5-{4-[(5-benzyl-4-phenyl-1,3-thiazol-2-yl)amino]-4-oxobutanoyl}-2-ethoxyphenyl)acrylic acid] belongs 0.05 to 0.5 µM; to `COCOc1ccc(C(=O)CCC(=O)Nc2nc(-c3ccccc3)c(Cc3ccccc3)s2)cc1` [Example 32, N-(5-benzyl-4-phenyl-1,3-thiazol-2-yl)-4-oxo-4-[4-(methoxymethoxy)phenyl]butanamide], 0.01 to 0.05 µM; to `O=C(CCC(=O)c1ccc(O)cc1)Nc1nc(-c2ccccc2)c(Cc2ccccc2)s1` [Example 33, N-(5-benzyl-4-phenyl-1,3-thiazol-2-yl)-4-(4-hydroxyphenyl)-4-oxobutanamide], 0.05 to 0.5 µM. To `CCOC(=O)Cc1ccc(C(=O)CCC(=O)Nc2nc(-c3ccccc3)c(Cc3ccccc3)s2)cc1` [Example 34] belongs 0.05 to 0.5 µM; to `O=C(O)Cc1ccc(C(=O)CCC(=O)Nc2nc(-c3ccccc3)c(Cc3ccccc3)s2)cc1` [Example 35], 0.5 to 10 µM; to `CCOc1ccc(C(=O)CCC(=O)Nc2nc(-c3ccccc3)c(Cc3ccccc3)s2)cc1Cl` [Example 36, N-(5-benzyl-4-phenyl-1,3-thiazol-2-yl)-4-(3-chloro-4-ethoxyphenyl)-4-oxobutanamide], not above 0.01 µM. As for `CCOC(=O)COc1ccc(C(=O)CCC(=O)Nc2nc(-c3ccccc3)c(Cc3ccccc3)s2)cc1` [Example 37], the half-maximal inhibitory concentration (IC50) lay in the range of 0.05 to 0.5 µM. In the case of `O=C(O)COc1ccc(C(=O)CCC(=O)Nc2nc(-c3ccccc3)c(Cc3ccccc3)s2)cc1` [Example 38], the IC50 lay within 0.5 to 10 µM. For the molecule `CCOc1ccc(C(=O)CCC(=O)Nc2ccc(CN3CCOCC3)c(-c3ccccc3)c2)cc1OCC` [Example 39, 4-(3,4-diethoxyphenyl)-N-(6-(morpholin-4-ylmethyl)biphenyl-3-yl]-4-oxobutanamide], the concentration for half-maximal inhibition (IC50) fell in the range of 0.5 to 10 µM. To `CCOc1cc(NC(=O)CCC(=O)c2ccc(OCC)c(OCC)c2)nc(-c2ccccc2)c1` [Example 40, 4-(3,4-diethoxyphenyl)-N-(4-ethoxy-6-phenylpyridin-2-yl)-4-oxobutanamide] belongs 0.05 to 0.5 µM; to `CCOc1ccc(C(=O)CCC(=O)Nc2cc(OCCC(C)C)cc(-c3ccccc3)n2)cc1OCC` [Example 41, 4-(3,4-diethoxyphenyl)-N-(4-(3-methylbutoxy)-6-phenylpyridin-2-yl)-4-oxobutanamide], 0.05 to 0.5 µM.

Regarding `CCOc1ccc(C(=O)CCC(=O)Nc2cc(OCc3ccccc3)cc(-c3ccccc3)n2)cc1OCC` [Example 42, 4-(3,4-diethoxyphenyl)-N-(4-(benzyloxy)-6-phenylpyridin-2-yl)-4-oxobutanamide], the IC50 was in the range of 0.05 to 0.5 µM. To `CCOc1ccc(C(=O)CCC(=O)Nc2cc(-c3ccc(F)cc3)cc(-c3ccccc3)n2)cc1OCC` [Example 43, 4-(3,4-diethoxyphenyl)-N-(4-(4-fluorophenyl)-6-phenylpyridin-2-yl)-4-oxobutanamide] belongs 0.05 to 0.5 µM; to `CCOc1ccc(C(=O)CCC(=O)Nc2cc(-c3ccccc3)c(Cc3ccccc3)s2)cc1` [Example 44, N-(5-benzyl-4-phenyl-2-thienyl)-4-(4-ethoxyphenyl)-4-oxobutanamide], 0.05 to 0.5 µM; to `CCOc1cccc(C(=O)CCC(=O)Nc2cc(-c3ccccc3)c(Cc3ccccc3)s2)c1` [Example 45, N-(5-benzyl-4-phenyl-2-thienyl)-4-(3-ethoxyphenyl)-4-oxobutanamide], 0.05 to 0.5 µM. In the case of `CCOc1ccc(C(=O)CCC(=O)Nc2cc(-c3ccccc3)c(CC3CCCCC3)s2)cc1OCC` [Example 46, N-(5-(cyclohexylmethyl)-4-phenyl-2-thienyl)-4-(3,4-diethoxyphenyl)-4-oxobutanamide] it was 0.05 to 0.5 µM; in that of `CCOc1ccc(C(=O)CCC(=O)Nc2cc(-c3ccccc3)c(Cc3ccc(Br)cc3)s2)cc1OCC` [Example 47, N-[5-(4-bromobenzyl)-4-phenyl-2-thienyl]-4-(3,4-diethoxyphenyl)-4-oxobutanamide], 0.01 to 0.05 µM; in that of `COc1ccc(C(=O)CCC(=O)Nc2cc(-c3ccccc3)c(Cc3ccccc3)s2)cc1OC` [Example 48, N-(5-benzyl-4-phenyl-2-thienyl)-4-(3,4-dimethoxyphenyl)-4-oxobutanamide], 0.01 to 0.05 µM. As for `O=C(CCC(=O)c1ccc2c(c1)CCO2)Nc1cc(-c2ccccc2)c(Cc2ccccc2)s1` [Example 49, N-(5-benzyl-4-phenyl-2-thienyl)-4-(2,3-dihydro-1-benzofuran-5-yl)-4-oxobutanamide], the concentration for half-maximal inhibition (IC50) was in the range of 0.01 to 0.05 µM. On to `CCOc1cc(C)c(C(=O)CCC(=O)Nc2cc(-c3ccccc3)c(Cc3ccccc3)s2)cc1OCC` [Example 50, N-(5-benzyl-4-phenyl-2-thienyl) -4-(4,5-diethoxy-2-methylphenyl)-4-oxobutanamide], for which the concentration for half-maximal inhibition (IC50) lay in the range of 0.01 to 0.05 µM. Regarding `CCOC(=O)/C=C/c1ccc(Cc2sc(NC(=O)CCC(=O)c3ccc(OCC)c(OCC)c3)cc2-c2ccccc2)cc1` [Example 51, ethyl (2E)-3-{4-[(5-{[4-(3,4-diethoxyphenyl)-4-oxobutanoyl]amino}-3-phenyl-2-thienyl)methyl]phenyl}acrylate], the concentration for half-maximal inhibition (IC50) lay within 0.05 to 0.5 µM. On to `CCOC(=O)c1sc(NC(=O)CCC(=O)c2ccc(OCC)c(OCC)c2)cc1-c1ccccc1` [Example 52, ethyl 5-{[4-(3,4-diethoxyphenyl)-4-oxobutanoyl]amino}-3-phenylthiophene-2-carboxylate], for which the half-inhibitory concentration (IC50) was 0.05 to 0.5 µM. To `COc1ccc(C(=O)CCC(=O)Nc2cc(-c3ccccc3)c(Cc3ccccc3)s2)cc1CCCOC(C)=O` [Example 53, 3-(5-{4-[(5-benzyl-4-phenyl-2-thienyl)amino]-4-oxobutanoyl}-2-methoxyphenyl)propyl acetate] belongs 0.05 to 0.5 µM; to `COc1ccc(C(=O)CCC(=O)Nc2cc(-c3ccccc3)c(Cc3ccccc3)s2)cc1CCCO` [Example 54, N-(5-benzyl-4-phenyl-2-thienyl)-4-[3-(3-hydroxypropyl)-4-methoxyphenyl]-4-oxobutanamide], 0.05 to 0.5 µM. In the case of `CCc1cc(C(=O)CCC(=O)Nc2cc(-c3ccccc3)c(Cc3ccccc3)s2)ccc1OC` [Example 55, N-(5-benzyl-4-phenyl-2-thienyl)-4-(3-ethyl-4-methoxyphenyl)-4-oxobutanamide] it was 0.05 to 0.5 µM; in that of `CCOc1ccc(C(=O)CCC(=O)Nc2cc(-c3ccccc3)c(C(=O)OC(C)(C)C)s2)cc1OCC` [Example 56, tert-butyl 5-{[4-(3,4-diethoxyphenyl)-4-oxobutanoyl]amino}-3-phenylthiophene-2-carboxylate], 0.05 to 0.5 µM; in that of `CCOc1ccc(C(=O)C(C)CC(=O)Nc2nc(-c3ccccc3)c(Cc3ccccc3)s2)cc1OCC` (stereo not shown) [Example 57, N-(5-benzyl-4-phenyl-1,3-thiazol-2-yl)-4-(3,4-diethoxyphenyl)-3-methyl-4-oxobutanamide], not above 0.01 µM.
